Measured values as given in EP0908457B1, “3-(1,2-benzisothiazol- and isoxazol-5-Y1)-2,4(1H,3H)-pyrimidinedione or thione and 3-(1,2-benzisothiazol- and isoxazol-5-y1)-4(3H)-pyrimidinone or thione herbicidal agents” (BASF AKTIENGESELLSCHAFT, priority 1997, dated 1999).

Experiments:
Cyperus iria = experiment: Preemergence weed control under flooded paddy conditions, CYPIR (Rice Flatsedge); format: in vivo; details: flooded paddy; for herbicidal effect rating, CYPIR / CYPIR: preemergence weeds; for herbicidal effect rating, CYPIR / CYPIR herbicidal effect rating / CYPIR herbicidal rating: rated three to four weeks after treatment; for CYPIR herbicidal effect rating / CYPIR herbicidal rating: preemergence; for CYPIR: herbicidal effect rating 0-9, three to four weeks after treatment; for herbicidal effect rating, CYPIR: meaning of each grade not given here
Sagittaria pygmaea, L. = experiment: Preemergence weed control under flooded paddy conditions, SAGPY (Arrowhead (Pygmaea)); format: in vivo; details: flooded paddy; for herbicidal effect rating, SAGPY / SAGPY: preemergence weeds; for herbicidal effect rating, SAGPY / SAGPY herbicidal effect rating / SAGPY herbicidal rating: rated three to four weeks after treatment; for SAGPY herbicidal effect rating / SAGPY herbicidal rating: preemergence; for SAGPY: herbicidal effect rating 0-9, three to four weeks after treatment; for herbicidal effect rating, SAGPY: meaning of each grade not given here
[1] = system: Echinochloa oryzoides (Ard.) Fritsch.; experiment: Preemergence weed control under flooded paddy conditions, ECHORC (Watergrass (Calif.)); format: in vivo; details: flooded paddy; for herbicidal effect rating, ECHORC / ECHORC: preemergence weeds; for herbicidal effect rating, ECHORC / ECHORC herbicidal effect rating / ECHORC herbicidal rating: rated three to four weeks after treatment; for ECHORC herbicidal effect rating / ECHORC herbicidal rating: preemergence; for ECHORC: herbicidal effect rating 0-9, three to four weeks after treatment; for herbicidal effect rating, ECHORC: meaning of each grade not given here
[2] = system: Monochoria vaginalis, Presl.; experiment: Preemergence weed control under flooded paddy conditions, MOOVA (Monochoria); format: in vivo; details: flooded paddy; for herbicidal effect rating, MOOVA / MOOVA: preemergence weeds; for herbicidal effect rating, MOOVA / MOOVA herbicidal effect rating / MOOVA herbicidal rating: rated three to four weeks after treatment; for MOOVA herbicidal effect rating / MOOVA herbicidal rating: preemergence; for MOOVA: herbicidal effect rating 0-9, three to four weeks after treatment; for herbicidal effect rating, MOOVA: meaning of each grade not given here
[3] = system: Oryza sativa, (L.) Tebonnet; experiment: Rice tolerance to post-transplant applications under flooded paddy conditions (Example 187), ORYSAT (Rice, Tebonnet); details: for herbicidal effect rating, ORYSAT (rice tolerance) / ORYSAT herbicidal effect rating / ORYSAT herbicidal rating (rice tolerance): rated three to four weeks after treatment; for ORYSAT: herbicidal effect rating 0-9, three to four weeks after treatment
[4] = system: Cyperus serotinus, Rottb.; experiment: Preemergence weed control under flooded paddy conditions, CYPSE (Flatsedge); format: in vivo; details: for herbicidal effect rating, CYPSE / CYPSE: preemergence weeds; for herbicidal effect rating, CYPSE / CYPSE herbicidal effect rating / CYPSE herbicidal rating: rated three to four weeks after treatment; for CYPSE herbicidal effect rating / CYPSE herbicidal rating: preemergence; for CYPSE: herbicidal effect rating 0-9, three to four weeks after treatment; for herbicidal effect rating, CYPSE: meaning of each grade not given here

CCOCc1nsc2ccc(-n3c(=O)cc(C(F)(F)F)n(C)c3=O)cc12 [Example 195, 3-[3-(Ethoxymethyl)-1,2-benzisothiazol-5-yl]-1-methyl-6-(trifluoromethyl)-2,4(1H,3H)-pyrimidinedione]
herbicidal effect rating, CYPIR (Cyperus iria; 0.0313 kg/ha): 0.0
herbicidal effect rating, CYPIR (Cyperus iria; 0.0625 kg/ha): 2.0
herbicidal effect rating, CYPIR (Cyperus iria; 0.1250 kg/ha): 4.0
herbicidal effect rating, CYPIR (Cyperus iria; 0.2500 kg/ha): 9.0
herbicidal effect rating, SAGPY (Sagittaria pygmaea, L.; 0.0313 kg/ha): 0.0
herbicidal effect rating, SAGPY (Sagittaria pygmaea, L.; 0.0625 kg/ha): 0.0
herbicidal effect rating, SAGPY (Sagittaria pygmaea, L.; 0.1250 kg/ha): 1.0
herbicidal effect rating, SAGPY (Sagittaria pygmaea, L.; 0.2500 kg/ha): 2.0
herbicidal effect rating, ECHORC ([1]; 0.0313 kg/ha): 2.0
herbicidal effect rating, ECHORC ([1]; 0.0625 kg/ha): 3.0
herbicidal effect rating, ECHORC ([1]; 0.1250 kg/ha): 6.0
herbicidal effect rating, ECHORC ([1]; 0.2500 kg/ha): 9.0
herbicidal effect rating, MOOVA ([2]; 0.0313 kg/ha): 9.0
herbicidal effect rating, MOOVA ([2]; 0.0625 kg/ha): 9.0
herbicidal effect rating, MOOVA ([2]; 0.1250 kg/ha): 9.0
herbicidal effect rating, MOOVA ([2]; 0.2500 kg/ha): 9.0
herbicidal effect rating, ORYSAT (rice tolerance) ([3]; 0.0313 kg/ha): 6.0
herbicidal effect rating, ORYSAT (rice tolerance) ([3]; 0.0625 kg/ha): 7.0
herbicidal effect rating, ORYSAT (rice tolerance) ([3]; 0.1250 kg/ha): 9.0
herbicidal effect rating, ORYSAT (rice tolerance) ([3]; 0.2500 kg/ha): 9.0
herbicidal effect rating, CYPSE ([4]; 0.0313 kg/ha): 0.0
herbicidal effect rating, CYPSE ([4]; 0.0625 kg/ha): 0.0
herbicidal effect rating, CYPSE ([4]; 0.1250 kg/ha): 2.0
herbicidal effect rating, CYPSE ([4]; 0.2500 kg/ha): 7.0

CC(=O)Nc1nnc(S(=O)(=O)NC(=O)COc2ccc(C)cc2-c2nsc3ccc(-n4c(=O)cc(C(F)(F)F)n(C)c4=O)cc23)s1 [Example 269, Acetamide, N-[(5-acetamido-1,3,4-thiadiazol-2-yl)sulfonyl]-2-{{2-{5-[3,6-dihydro-3-methyl-2,6-dioxo-4-(trifluoromethyl)-1(2H)-pyrimidinyl]-1,2-benzisothiazol-3-yl}-p-tolyl}oxy}-]
CYPIR herbicidal effect rating (Cyperus iria; Rate 0.2500 kg/ha): 0.0
CYPIR herbicidal effect rating (Cyperus iria; Rate 0.5000 kg/ha): 0.0
SAGPY herbicidal effect rating (Sagittaria pygmaea, L.; Rate 0.2500 kg/ha): 0.0
SAGPY herbicidal effect rating (Sagittaria pygmaea, L.; Rate 0.5000 kg/ha): 0.0
ECHORC herbicidal effect rating ([1]; Rate 0.2500 kg/ha): 0.0
ECHORC herbicidal effect rating ([1]; Rate 0.5000 kg/ha): 4.0
MOOVA herbicidal effect rating ([2]; Rate 0.2500 kg/ha): 0.0
MOOVA herbicidal effect rating ([2]; Rate 0.5000 kg/ha): 9.0
ORYSAT herbicidal effect rating ([3]; Rate 0.2500 kg/ha): 0.0
ORYSAT herbicidal effect rating ([3]; Rate 0.5000 kg/ha): 0.0
CYPSE herbicidal effect rating ([4]; Rate 0.2500 kg/ha): 0.0
CYPSE herbicidal effect rating ([4]; Rate 0.5000 kg/ha): 0.0

Cc1nsc2ccc(-n3c(=O)cc(C(F)(F)F)n(Cc4ccccc4)c3=O)cc12 [Example 218, 1-Benzyl-3-(3-methyl-1,2-benzisothiazol-5-yl)-6-(trifluoromethyl)-2,4(1H,3H)-pyrimidinedione]
CYPIR herbicidal effect rating (Cyperus iria; Rate 0.0313 kg/ha): 0.0
CYPIR herbicidal effect rating (Cyperus iria; Rate 0.0625 kg/ha): 0.0
CYPIR herbicidal effect rating (Cyperus iria; Rate 0.1250 kg/ha): 0.0
CYPIR herbicidal effect rating (Cyperus iria; Rate 0.2500 kg/ha): 0.0
SAGPY herbicidal effect rating (Sagittaria pygmaea, L.; Rate 0.0313 kg/ha): 0.0
SAGPY herbicidal effect rating (Sagittaria pygmaea, L.; Rate 0.0625 kg/ha): 0.0
SAGPY herbicidal effect rating (Sagittaria pygmaea, L.; Rate 0.1250 kg/ha): 0.0
SAGPY herbicidal effect rating (Sagittaria pygmaea, L.; Rate 0.2500 kg/ha): 0.0
ECHORC herbicidal effect rating ([1]; Rate 0.0313 kg/ha): 0.0
ECHORC herbicidal effect rating ([1]; Rate 0.0625 kg/ha): 0.0
ECHORC herbicidal effect rating ([1]; Rate 0.1250 kg/ha): 2.0
ECHORC herbicidal effect rating ([1]; Rate 0.2500 kg/ha): 4.0
MOOVA herbicidal effect rating ([2]; Rate 0.0313 kg/ha): 8.0
MOOVA herbicidal effect rating ([2]; Rate 0.0625 kg/ha): 9.0
MOOVA herbicidal effect rating ([2]; Rate 0.1250 kg/ha): 9.0
MOOVA herbicidal effect rating ([2]; Rate 0.2500 kg/ha): 9.0
ORYSAT herbicidal effect rating ([3]; Rate 0.0313 kg/ha): 1.0
ORYSAT herbicidal effect rating ([3]; Rate 0.0625 kg/ha): 2.0
ORYSAT herbicidal effect rating ([3]; Rate 0.1250 kg/ha): 3.0
ORYSAT herbicidal effect rating ([3]; Rate 0.2500 kg/ha): 3.0
CYPSE herbicidal effect rating ([4]; Rate 0.0313 kg/ha): 0.0
CYPSE herbicidal effect rating ([4]; Rate 0.0625 kg/ha): 0.0
CYPSE herbicidal effect rating ([4]; Rate 0.1250 kg/ha): 0.0
CYPSE herbicidal effect rating ([4]; Rate 0.2500 kg/ha): 0.0

COC(=O)C(C)(C)c1nsc2ccc(-n3c(=O)cc(C(F)(F)F)n(C)c3=O)cc12 [Example 490, 1,2-Benzisothiazole-3-acetic acid, 5-[3,6-dihydro-3-methyl-2,6-dioxo-4-(trifluoromethyl)-1(2H)-pyrimidinyl]-alpha,alpha-dimethyl-, methyl ester]
CYPIR herbicidal rating (Cyperus iria; 0.0320 kg/ha): 9.0
CYPIR herbicidal rating (Cyperus iria; 0.0620 kg/ha): 9.0
CYPIR herbicidal rating (Cyperus iria; 0.1250 kg/ha): 9.0
CYPIR herbicidal rating (Cyperus iria; 0.2500 kg/ha): 9.0
SAGPY herbicidal rating (Sagittaria pygmaea, L.; 0.0320 kg/ha): 6.0
SAGPY herbicidal rating (Sagittaria pygmaea, L.; 0.0620 kg/ha): 9.0
SAGPY herbicidal rating (Sagittaria pygmaea, L.; 0.1250 kg/ha): 9.0
SAGPY herbicidal rating (Sagittaria pygmaea, L.; 0.2500 kg/ha): 9.0
ECHORC herbicidal rating ([1]; 0.0320 kg/ha): 8.0
ECHORC herbicidal rating ([1]; 0.0620 kg/ha): 9.0
ECHORC herbicidal rating ([1]; 0.1250 kg/ha): 9.0
ECHORC herbicidal rating ([1]; 0.2500 kg/ha): 9.0
MOOVA herbicidal rating ([2]; 0.0320 kg/ha): 9.0
MOOVA herbicidal rating ([2]; 0.0620 kg/ha): 9.0
MOOVA herbicidal rating ([2]; 0.1250 kg/ha): 9.0
MOOVA herbicidal rating ([2]; 0.2500 kg/ha): 9.0
ORYSAT herbicidal rating (rice tolerance) ([3]; 0.0320 kg/ha): 7.5
ORYSAT herbicidal rating (rice tolerance) ([3]; 0.0620 kg/ha): 9.0
ORYSAT herbicidal rating (rice tolerance) ([3]; 0.1250 kg/ha): 8.5
ORYSAT herbicidal rating (rice tolerance) ([3]; 0.2500 kg/ha): 9.0
CYPSE herbicidal rating ([4]; 0.0320 kg/ha): 9.0
CYPSE herbicidal rating ([4]; 0.0620 kg/ha): 9.0
CYPSE herbicidal rating ([4]; 0.1250 kg/ha): 9.0
CYPSE herbicidal rating ([4]; 0.2500 kg/ha): 9.0

CN(C(=O)COc1ccccc1-c1nsc2ccc(-n3c(=O)cc(C(F)(F)F)n(C)c3=O)cc12)S(C)(=O)=O [Example 438, Acetamide, 2-{o-{5-[3,6-dihydro-3-methyl-2,6-dioxo-4-(trifluoromethyl)-1(2H)-pyrimidinyl]-1,2-benzisothiazol-3-yl}phenoxy}-N-methyl-N-(methylsulfonyl)-]
CYPIR (Cyperus iria; 0.0320 kg/ha): 4.5
CYPIR (Cyperus iria; 0.0620 kg/ha): 6.5
CYPIR (Cyperus iria; 0.1250 kg/ha): 8.5
CYPIR (Cyperus iria; 0.2500 kg/ha): 9.0
SAGPY (Sagittaria pygmaea, L.; 0.0320 kg/ha): 2.0
SAGPY (Sagittaria pygmaea, L.; 0.0620 kg/ha): 3.5
SAGPY (Sagittaria pygmaea, L.; 0.1250 kg/ha): 8.5
SAGPY (Sagittaria pygmaea, L.; 0.2500 kg/ha): 9.0
ECHORC ([1]; 0.0320 kg/ha): 7.0
ECHORC ([1]; 0.0620 kg/ha): 8.0
ECHORC ([1]; 0.1250 kg/ha): 9.0
ECHORC ([1]; 0.2500 kg/ha): 9.0
MOOVA ([2]; 0.0320 kg/ha): 8.0
MOOVA ([2]; 0.0620 kg/ha): 8.5
MOOVA ([2]; 0.1250 kg/ha): 9.0
MOOVA ([2]; 0.2500 kg/ha): 9.0
ORYSAT ([3]; 0.0320 kg/ha): 4.0
ORYSAT ([3]; 0.0620 kg/ha): 5.0
ORYSAT ([3]; 0.1250 kg/ha): 7.0
ORYSAT ([3]; 0.2500 kg/ha): 8.0
CYPSE ([4]; 0.0320 kg/ha): 4.5
CYPSE ([4]; 0.0620 kg/ha): 9.0
CYPSE ([4]; 0.1250 kg/ha): 7.0
CYPSE ([4]; 0.2500 kg/ha): 9.0

Cn1c(C(F)(F)F)cc(=O)n(-c2ccc3snc(-c4ccccc4OCC(=O)NS(C)(=O)=O)c3c2)c1=O [Example 268, Acetamide, 2-{o-{5-[3,6-dihydro-3-methyl-2,6-dioxo-4-(trifluoromethyl)-1(2H)-pyrimidinyl]-1,2-benzisothiazol-3-yl}phenoxy}-N-(methylsulfonyl)-]
CYPIR herbicidal effect rating (Cyperus iria; Rate 0.0320 kg/ha): 1.0
CYPIR herbicidal effect rating (Cyperus iria; Rate 0.0620 kg/ha): 3.0
CYPIR herbicidal effect rating (Cyperus iria; Rate 0.1250 kg/ha): 6.0
CYPIR herbicidal effect rating (Cyperus iria; Rate 0.2500 kg/ha): 7.5
SAGPY herbicidal effect rating (Sagittaria pygmaea, L.; Rate 0.0320 kg/ha): 0.0
SAGPY herbicidal effect rating (Sagittaria pygmaea, L.; Rate 0.0620 kg/ha): 1.0
SAGPY herbicidal effect rating (Sagittaria pygmaea, L.; Rate 0.1250 kg/ha): 1.0
SAGPY herbicidal effect rating (Sagittaria pygmaea, L.; Rate 0.2500 kg/ha): 4.0
ECHORC herbicidal effect rating ([1]; Rate 0.0320 kg/ha): 1.0
ECHORC herbicidal effect rating ([1]; Rate 0.0620 kg/ha): 3.0
ECHORC herbicidal effect rating ([1]; Rate 0.1250 kg/ha): 4.5
ECHORC herbicidal effect rating ([1]; Rate 0.2500 kg/ha): 4.5
MOOVA herbicidal effect rating ([2]; Rate 0.0320 kg/ha): 7.5
MOOVA herbicidal effect rating ([2]; Rate 0.0620 kg/ha): 9.0
MOOVA herbicidal effect rating ([2]; Rate 0.1250 kg/ha): 9.0
MOOVA herbicidal effect rating ([2]; Rate 0.2500 kg/ha): 9.0
ORYSAT herbicidal effect rating ([3]; Rate 0.0320 kg/ha): 3.5
ORYSAT herbicidal effect rating ([3]; Rate 0.0620 kg/ha): 4.0
ORYSAT herbicidal effect rating ([3]; Rate 0.1250 kg/ha): 5.0
ORYSAT herbicidal effect rating ([3]; Rate 0.2500 kg/ha): 7.5
CYPSE herbicidal effect rating ([4]; Rate 0.0320 kg/ha): 1.0
CYPSE herbicidal effect rating ([4]; Rate 0.0620 kg/ha): 5.5
CYPSE herbicidal effect rating ([4]; Rate 0.1250 kg/ha): 9.0
CYPSE herbicidal effect rating ([4]; Rate 0.2500 kg/ha): 9.0
